Laboratory results published in patent US9828379B2 (priority 2013, dated 2017).

Legend:
FAAH [1] = molecular target: T1, FAAH (Mus musculus, UniProt O08914); test: In vitro competitive activity-based protein profiling (Table 2, % inhibition at 1 μM); type: biochemical; conditions: read-out: % Inhibition at 1 μM FAAH
T1 sequence (O08914 1-579): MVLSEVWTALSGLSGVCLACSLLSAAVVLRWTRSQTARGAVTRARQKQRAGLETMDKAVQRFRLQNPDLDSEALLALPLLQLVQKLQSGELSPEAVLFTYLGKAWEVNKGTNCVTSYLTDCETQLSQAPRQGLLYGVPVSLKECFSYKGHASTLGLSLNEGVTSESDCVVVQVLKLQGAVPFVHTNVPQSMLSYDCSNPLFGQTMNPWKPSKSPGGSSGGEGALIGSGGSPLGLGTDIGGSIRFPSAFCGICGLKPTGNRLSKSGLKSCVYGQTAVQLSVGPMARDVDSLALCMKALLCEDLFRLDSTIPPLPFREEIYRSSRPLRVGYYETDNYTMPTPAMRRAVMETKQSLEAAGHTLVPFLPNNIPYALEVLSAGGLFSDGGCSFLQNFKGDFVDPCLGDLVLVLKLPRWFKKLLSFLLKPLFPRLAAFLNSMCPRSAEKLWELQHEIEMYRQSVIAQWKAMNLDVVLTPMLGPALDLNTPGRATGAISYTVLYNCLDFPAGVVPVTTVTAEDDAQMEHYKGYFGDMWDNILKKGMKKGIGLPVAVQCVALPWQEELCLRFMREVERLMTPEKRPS

ABHD6 [2] = molecular target: T2, ABHD6 (Mus musculus, UniProt Q8R2Y0); test: as above; type: biochemical; conditions: read-out: % Inhibition at 1 μM ABHD6
T2 sequence (Q8R2Y0 1-336): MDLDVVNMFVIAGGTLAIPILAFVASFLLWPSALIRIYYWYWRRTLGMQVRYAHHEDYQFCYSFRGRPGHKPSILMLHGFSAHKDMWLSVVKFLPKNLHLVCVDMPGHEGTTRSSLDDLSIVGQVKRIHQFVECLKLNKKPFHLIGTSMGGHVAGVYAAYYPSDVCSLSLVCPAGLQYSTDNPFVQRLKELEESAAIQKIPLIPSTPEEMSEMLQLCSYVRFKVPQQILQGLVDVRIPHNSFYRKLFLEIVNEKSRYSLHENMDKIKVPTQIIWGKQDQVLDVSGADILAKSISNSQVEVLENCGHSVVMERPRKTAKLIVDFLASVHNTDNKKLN

FAAH [3] = molecular target: T1, FAAH; test: biochemical; conditions: in vitro competitive ABPP
Mouse brain MAGL = molecular target: T3, Mouse brain MAGL (Mus musculus, UniProt O35678); test: Mouse brain proteomes from inhibitor treated mice (oral gavage, ABPP analysis); type: in vivo; conditions: p.o., sacrificed 4 h following administration
T3 construct: from tissue; host or cells: brain of wild-type C57Bl/6J mice dosed by oral gavage
T3 sequence (O35678 1-303): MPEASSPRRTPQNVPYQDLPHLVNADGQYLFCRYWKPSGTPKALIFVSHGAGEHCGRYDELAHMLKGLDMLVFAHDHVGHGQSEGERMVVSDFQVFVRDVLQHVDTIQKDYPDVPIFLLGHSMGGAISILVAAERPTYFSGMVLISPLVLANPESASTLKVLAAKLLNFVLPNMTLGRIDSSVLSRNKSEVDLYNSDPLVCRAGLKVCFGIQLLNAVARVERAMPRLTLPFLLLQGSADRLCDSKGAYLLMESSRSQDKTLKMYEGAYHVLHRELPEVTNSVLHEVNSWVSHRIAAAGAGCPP
Procedure: After 30 min, FP—Rh (1.0 μL, 50 μM in DMSO) was added and the mixture was incubated for another 30 min at 37° C. Reactions were quenched with SDS loading buffer (50 μL-4×) and run on SDS-PAGE. Following gel imaging, serine hydrolase activity was determined by measuring fluorescent intensity of gel bands corresponding to MAGL, ABHD6 and FAAH using ImageJ 1.43 u software.
Inhibitors were administered to wild-type C57Bl/6J by oral gavage in a vehicle of polyethylene glycol. Each animal was sacrificed 4 h following administration and brain proteomes were prepared and analyzed according to previously established methods (See Niphakis, M. J., et al. (2011) ACS Chem. Neurosci. and Long, J. Z., et al. Nat. Chem. Biol. 5:37-44).

MAGL [4] = molecular target: T4, MAGL (Mus musculus, UniProt O35678); test: biochemical; conditions: mouse; in vitro competitive ABPP; read-out: Mouse (IC50 value, nM) MAGL
T4 sequence (O35678 1-303): T3 sequence (O35678 1-303)

MAGL [5] = molecular target: T4, MAGL; test: In vitro competitive activity-based protein profiling (Table 2, % inhibition at 1 μM); type: biochemical; conditions: read-out: % Inhibition at 1 μM MAGL
Procedure: After 30 min, FP—Rh (1.0 μL, 50 μM in DMSO) was added and the mixture was incubated for another 30 min at 37° C. Reactions were quenched with SDS loading buffer (50 μL-4×) and run on SDS-PAGE.
Cell lysates were diluted with mock proteomes for use in competitive ABPP experiments.

ABHD6 [6] = molecular target: T2, ABHD6; test: biochemical; conditions: in vitro competitive ABPP

Compound | inhibition at 1 µM (FAAH [1]) | inhibition at 1 µM (ABHD6 [2]) | IC50 (FAAH [3]) | inhibition at 5 mg/kg (Mouse brain MAGL) | IC50 (MAGL [4]) | inhibition at 1 µM (MAGL [5]) | IC50 (ABHD6 [6])
O=C(OC(C(F)(F)F)C(F)(F)F)N1CC2CN(Cc3cccc(C(F)(F)F)c3N3CCOCC3)CC2C1 (stereo not shown) [Example 45, 1,1,1,3,3,3-Hexafluoropropan-2-yl 5-[[2-(morpholin-4-yl)-3-(trifluoromethyl)phenyl]methyl]-octahydropyrrolo[3,4-c]pyrrole-2-carboxylate] | < 25% | < 25% | 1000 to 10000 nM | ≥ 75% | < 100 nM | > 75% | 1000 to 10000 nM
O=C(OC(C(F)(F)F)C(F)(F)F)N1CC2CN(Cc3cccc(N4CCOCC4)c3C(F)(F)F)CC2C1 (stereo not shown) [Example 129, 1,1,1,3,3,3-hexafluoropropan-2-yl 5-[[3-(morpholin-4-yl)-2-(trifluoromethyl)phenyl]methyl]-octahydropyrrolo[3,4-c]pyrrole-2-carboxylate] | < 25% | < 25% | 1000 to 10000 nM | ≥ 75% | < 100 nM | > 75% | 1000 to 10000 nM
CCn1ncc(CN2CC3CN(C(=O)OC(C(F)(F)F)C(F)(F)F)CC3C2)c1C(=O)NCCc1cccc(Cl)c1 (stereo not shown) [Example 180, 1,1,1,3,3,3-hexafluoropropan-2-yl 5-((5-((3-chlorophenethyl)carbamoyl)-1-ethyl-1H-pyrazol-4-yl)methyl)hexahydropyrrolo[3,4-c]pyrrole-2(1H)-carboxylate] | < 25% | < 25% | > 10000 nM | ≤ 25% | < 100 nM | > 75% | 1000 to 10000 nM
Cc1c(CN2CC3CN(C(=O)OC(C(F)(F)F)C(F)(F)F)CC3C2)cccc1N1CCCCC1 (stereo not shown) [Example 29, 1,1,1,3,3,3-Hexafluoropropan-2-yl 5-[[2-methyl-3-(piperidin-1-yl)phenyl]methyl]-octahydropyrrolo[3,4-c]pyrrole-2-carboxylate] | 25 to 75% | < 25% | 1000 to 10000 nM | ≤ 25% | < 100 nM | > 75% | > 10000 nM
Cc1cc(CN2CC3CN(C(=O)OC(C(F)(F)F)C(F)(F)F)CC3C2)n(C2CCCCC2)n1 (stereo not shown) [Example 58, 1,1,1,3,3,3-Hexafluoropropan-2-yl 5-[(1-cyclohexyl-3-methyl-1H-pyrazol-5-yl)methyl]-octahydropyrrolo[3,4-c]pyrrole-2-carboxylate] | < 25% | 25 to 75% | > 10000 nM | ≥ 75% | < 100 nM | > 75% | 1000 to 10000 nM
CS(=O)(=O)N1CC2(CCN(c3ccccc3CN3CC4CN(C(=O)OC(C(F)(F)F)C(F)(F)F)CC4C3)C2)C1 (stereo not shown) [Example 136, 1,1,1,3,3,3-hexafluoropropan-2-yl 5-[(2-[2-methanesulfonyl-2,6-diazaspiro[3.4]octan-6-yl]phenyl)methyl]-octahydropyrrolo[3,4-c]pyrrole-2-carboxylate] | < 25% | < 25% | 1000 to 10000 nM | ≤ 25% | < 100 nM | > 75% | 1000 to 10000 nM
O=C(OC(C(F)(F)F)C(F)(F)F)N1CC2CN(Cc3cccc(Cl)c3N3CCC(F)CC3)CC2C1 (stereo not shown) [Example 159, 1,1,1,3,3,3-hexafluoropropan-2-yl 5-[[3-chloro-2-(4-fluoropiperidin-1-yl)phenyl]methyl]-octahydropyrrolo[3,4-c]pyrrole-2-carboxylate] | < 25% | < 25% | > 10000 nM | ≤ 25% | < 100 nM | > 75% | 1000 to 10000 nM
CCn1cc(CN2CC3CN(C(=O)OC(C(F)(F)F)C(F)(F)F)CC3C2)c(-c2cccc(N3CCCC3)c2)n1 (stereo not shown) [Example 64, 1,1,1,3,3,3-Hexafluoropropan-2-yl 5-([1-ethyl-3-[3-(pyrrolidin-1-yl)phenyl]-1H-pyrazol-4-yl]methyl)-octahydropyrrolo[3,4-c]pyrrole-2-carboxylate] | < 25% | < 25% | 1000 to 10000 nM | 25 to 75% | < 100 nM | > 75% | 1000 to 10000 nM
CCn1cc(CN2CC3CN(C(=O)OC(C(F)(F)F)C(F)(F)F)CC3C2)c(-c2ccc(N3CCC3)cc2)n1 (stereo not shown) [Example 69, 1,1,1,3,3,3-Hexafluoropropan-2-yl 5-([3-[4-(azetidin-1-yl)phenyl]-1-ethyl-1H-pyrazol-4-yl]methyl)-octahydropyrrolo[3,4-c]pyrrole-2-carboxylate] | < 25% | 25 to 75% | 1000 to 10000 nM | ≤ 25% | < 100 nM | > 75% | 1000 to 10000 nM
O=C(OC(C(F)(F)F)C(F)(F)F)N1CC2CN(Cc3cc(CN4CCOCC4)ccc3OC(F)(F)F)CC2C1 (stereo not shown) [Example 188, 1,1,1,3,3,3-hexafluoropropan-2-yl 5-(5-(morpholinomethyl)-2-(trifluoromethoxy)benzyl)hexahydropyrrolo[3,4-c]pyrrole-2(1H)-carboxylate] | < 25% | < 25% | 1000 to 10000 nM | ≥ 75% | < 100 nM | > 75% | 1000 to 10000 nM
CCn1cc(CN2CC3CN(C(=O)OC(C(F)(F)F)C(F)(F)F)CC3C2)c(-c2ccccc2N2CCCCC2)n1 (stereo not shown) [Example 130, 1,1,1,3,3,3-hexafluoropropan-2-yl 5-([1-ethyl-3-[2-(piperidin-1-yl)phenyl]-1H-pyrazol-4-yl]methyl)-octahydropyrrolo[3,4-c]pyrrole-2-carboxylate] | < 25% | < 25% | > 10000 nM | ≤ 25% | < 100 nM | > 75% | 1000 to 10000 nM
O=C(OC(C(F)(F)F)C(F)(F)F)N1CC2CN(Cc3ccc(Cl)cc3N3CC4CCC(C3)O4)CC2C1 (stereo not shown) [Example 3, 1,1,1,3,3,3-Hexafluoropropan-2-yl 5-(2-(8-oxa-3-azabicyclo[3.2.1]octan-3-yl)-4-chlorobenzyl)hexahydropyrrolo[3,4-c]pyrrole-2(1H)-carboxylate] | 25 to 75% | 25 to 75% | 1000 to 10000 nM | ≤ 25% | < 100 nM | > 75% | 1000 to 10000 nM
O=C(OC(C(F)(F)F)C(F)(F)F)N1CC2CN(Cc3cccc(Cl)c3N3CCC4(CCOCC4)C3)CC2C1 (stereo not shown) [Example 172, 1,1,1,3,3,3-hexafluoropropan-2-yl 5-[(3-chloro-2-[8-oxa-2-azaspiro[4.5]decan-2-yl]phenyl)methyl]-octahydropyrrolo[3,4-c]pyrrole-2-carboxylate] | < 25% | < 25% | > 10000 nM | ≤ 25% | < 100 nM | > 75% | 1000 to 10000 nM
